Measurements published in ChEMBL document CHEMBL3217587, “The discovery of N-1 substituted 2-aminobenzimidazoles as zinc-dependent S. aureus biofilm inhibitors” (Medchemcomm, 2012).
Calls of active or inactive are those of the source. No cut-off for these calls is given here.

Key:
Staphylococcus aureus [1] = experiment: Antimicrobial activity against methicillin-susceptible Staphylococcus aureus ATCC 29213 after 16 hrs by broth microdilution method; type: functional; conditions: ATCC 29213, 16 h
Staphylococcus aureus [2] = experiment: Antimicrobial activity against methicillin-resistant Staphylococcus aureus ATCC BAA-44 after 16 hrs by broth microdilution method; type: functional; conditions: ATCC BAA-44, 16 h
Staphylococcus aureus [3] = experiment: Antimicrobial activity against methicillin-resistant Staphylococcus aureus ATCC 33591 after 16 hrs by broth microdilution method; type: functional; conditions: ATCC 33591, 16 h
Staphylococcus aureus [4] = experiment: Antimicrobial activity against methicillin-resistant Staphylococcus aureus ATCC 43300 after 16 hrs by broth microdilution method; type: functional; conditions: ATCC 43300, 16 h
Staphylococcus aureus [5] = experiment: Antimicrobial activity against methicillin-resistant Staphylococcus aureus ATCC 700789 after 16 hrs by broth microdilution method; type: functional; conditions: ATCC 700789, 16 h
Staphylococcus aureus [6] = experiment: Antimicrobial activity against methicillin-resistant Staphylococcus aureus ATCC BAA-811 after 16 hrs by broth microdilution method; type: functional; conditions: ATCC BAA-811, 16 h
Staphylococcus aureus [7] = experiment: Antimicrobial activity against methicillin-resistant Staphylococcus aureus ATCC BAA-1556 after 16 hrs by broth microdilution method; type: functional; conditions: ATCC BAA-1556, 16 h
Staphylococcus aureus [8] = experiment: Antimicrobial activity against methicillin-resistant Staphylococcus aureus ATCC BAA-1685 after 16 hrs by broth microdilution method; type: functional; conditions: ATCC BAA-1685, 16 h
Staphylococcus aureus [9] = experiment: Antimicrobial activity against methicillin-resistant Staphylococcus aureus ATCC BAA-1753 after 16 hrs by broth microdilution method; type: functional; conditions: ATCC BAA-1753, 16 h
Acinetobacter baumannii = experiment: Antimicrobial activity against multidrug-resistant Acinetobacter baumannii ATCC BAA-1605 after 16 hrs by broth microdilution method; type: functional; conditions: ATCC BAA-1605, 16 h
Pseudomonas aeruginosa = experiment: Antimicrobial activity against Pseudomonas aeruginosa PA14 after 16 hrs by broth microdilution method; type: functional; conditions: PA14, 16 h
Staphylococcus aureus [10] = experiment: Toxicity in methicillin-resistant Staphylococcus aureus ATCC 43300 assessed as inhibition of planktonic cell growth at IC50 after 2 to 24 hrs by spectrophotometry; type: organism-based
Staphylococcus aureus [11] = experiment: Antimicrobial activity against methicillin-resistant Staphylococcus aureus ATCC 43300 assessed as inhibition of biofilm formation after 24 hrs by crystal violet staining-based microscopy; type: functional, organism-based; conditions: ATCC 43300, 24 h
Staphylococcus aureus [12] = experiment: Antimicrobial activity against methicillin-resistant Staphylococcus aureus ATCC BAA-44 assessed as inhibition of biofilm formation after 24 hrs by crystal violet staining-based microscopy; type: functional, organism-based; conditions: ATCC BAA-44, 24 h
Staphylococcus aureus [13] = experiment: Antibiofilm activity against methicillin-resistant Staphylococcus aureus ATCC 43300 assessed as biofilm dispersal at 20 uM after 24 hrs by crystal violet staining-based microscopy; type: functional, organism-based
Staphylococcus aureus [14] = experiment: Toxicity in methicillin-resistant Staphylococcus aureus ATCC BAA-44 assessed as inhibition of planktonic cell growth at IC50 after 2 to 24 hrs by spectrophotometry; type: organism-based
Staphylococcus aureus [15] = experiment: Antimicrobial activity against methicillin-resistant Staphylococcus aureus ATCC 43300 assessed as inhibition of biofilm formation at 8 uM after 24 hrs by crystal violet staining-based microscopy in presence of Ca2+ ion; type: functional, organism-based
Staphylococcus aureus [16] = experiment: Antimicrobial activity against methicillin-resistant Staphylococcus aureus ATCC 43300 assessed as inhibition of biofilm formation at 8 uM after 24 hrs by crystal violet staining-based microscopy in presence of Cu2+ ion; type: functional, organism-based
Staphylococcus aureus [17] = experiment: Antimicrobial activity against methicillin-resistant Staphylococcus aureus ATCC 43300 assessed as inhibition of biofilm formation at 8 uM after 24 hrs by crystal violet staining-based microscopy in presence of Fe2+ ion; type: functional, organism-based
Staphylococcus aureus [18] = experiment: Antimicrobial activity against methicillin-resistant Staphylococcus aureus ATCC 43300 assessed as inhibition of biofilm formation at 8 uM after 24 hrs by crystal violet staining-based microscopy in presence of Mg2+ ion; type: functional, organism-based
Staphylococcus aureus [19] = experiment: Antimicrobial activity against methicillin-resistant Staphylococcus aureus ATCC 43300 assessed as inhibition of biofilm formation at 8 uM after 24 hrs by crystal violet staining-based microscopy in presence of Mn2+ ion; type: functional, organism-based
Staphylococcus aureus [20] = experiment: Antimicrobial activity against methicillin-resistant Staphylococcus aureus ATCC 43300 assessed as inhibition of biofilm formation at 8 uM after 24 hrs by crystal violet staining-based microscopy in presence of < 50 uM Zn2+ ion; type: functional
Staphylococcus aureus [21] = experiment: Antimicrobial activity against methicillin-resistant Staphylococcus aureus ATCC 43300 assessed as inhibition of biofilm formation at 8 uM after 24 hrs by crystal violet staining-based microscopy in presence of > 50 uM Zn2+ ion; type: functional, organism-based
Staphylococcus aureus [22] = experiment: Antimicrobial activity against methicillin-resistant Staphylococcus aureus ATCC 43300 assessed as inhibition of biofilm formation at 8 uM after 24 hrs by crystal violet staining-based microscopy in presence of 200 uM Zn2+ ion; type: functional

| Compound | MIC (Staphylococcus aureus [1]) [µg/mL] | MIC (Staphylococcus aureus [2]) [µg/mL] | MIC (Staphylococcus aureus [3]) [µg/mL] | MIC (Staphylococcus aureus [4]) [µg/mL] | MIC (Staphylococcus aureus [5]) [µg/mL] | MIC (Staphylococcus aureus [6]) [µg/mL] | MIC (Staphylococcus aureus [7]) [µg/mL] | MIC (Staphylococcus aureus [8]) [µg/mL] | MIC (Staphylococcus aureus [9]) [µg/mL] | MIC (Acinetobacter baumannii) [µg/mL] | MIC (Pseudomonas aeruginosa) [µg/mL] | Activity (Staphylococcus aureus [10]) | IC50 (Staphylococcus aureus [11]) [µM] | IC50 (Staphylococcus aureus [12]) [µM] | Activity (Staphylococcus aureus [13]) | Activity (Staphylococcus aureus [14]) | inhibition (Staphylococcus aureus [15]) | inhibition (Staphylococcus aureus [16]) | inhibition (Staphylococcus aureus [17]) | inhibition (Staphylococcus aureus [18]) | further results |
| --- | --- | --- | --- | --- | --- | --- | --- | --- | --- | --- | --- | --- | --- | --- | --- | --- | --- | --- | --- | --- | --- |
| CCCCCc1ccc(C(=O)Nc2ccc3c(c2)nc(N)n3CCc2ccccc2)cc1.Cl | 8 | 16 | 8 | 8 | 16 | 8 | 8 | 8 | 8 | > 64 | > 64 | Non-toxic | 4.7 | 6 | inactive | Non-toxic | Active | Active | Active | Active | inhibition (Staphylococcus aureus [19]): Active; inhibition (INH) (Staphylococcus aureus [20]): 70%; inhibition (Staphylococcus aureus [21]): inactive; inhibition (INH) (Staphylococcus aureus [22]): 10% |
| CCCCCc1ccc(C(=O)Nc2ccc3c(c2)nc(N)n3CCc2ccc3ccccc3c2)cc1.Cl | 64 | 32 | 32 | 32 | 32 | 32 | 32 | 32 | 64 | > 64 | > 64 | Toxic | 5.7 | 14.3 | inactive | Toxic |  |  |  |  |  |
| CCCCCCn1c(N)nc2cc(NC(=O)c3ccc(CCCCC)cc3)ccc21.Cl | 16 | 16 | 16 | 16 | 32 | 16 | 16 | 16 | 16 | > 64 | > 64 | Non-toxic | 4.7 | 7.3 | inactive | Non-toxic | Active | Active | Active | Active | inhibition (Staphylococcus aureus [19]): Active; inhibition (Staphylococcus aureus [20]): inactive; inhibition (Staphylococcus aureus [21]): inactive |
| CCCCCc1ccc(C(=O)Nc2ccc3c(c2)nc(N)n3CCc2cccc(OC)c2)cc1.Cl | 16 | 32 | 16 | 16 | 16 | 16 | 16 | 16 | 16 | > 64 | > 64 | Toxic | 6.1 | 9.3 | inactive | Non-toxic |  |  |  |  |  |
| CCCCCc1ccc(C(=O)Nc2ccc3c(c2)nc(N)n3CCCC)cc1.Cl | 8 | 8 | 8 | 8 | 8 | 8 | 8 | 8 | 8 | > 64 | > 64 | Non-toxic | 4.5 | 5 | inactive | Non-toxic |  |  |  |  |  |
